What was measured:
[1] = tested on: VCaP cells; assay: VCaP growth inhibition assay (CTG); type: cell-based; conditions: Homo sapiens, 216 h, 30 pM R1881, 9 days
In short: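 Growth was measured by CTG luminescence after a 9-day exposure of VCaP cells to compound (final 10 fM–100 nM, fivefold steps) in the presence of 30 pM final R1881, in phenol red-free DMEM/5% CSS. IC50 values were derived by nonlinear 4-parameter regression of RLU against concentration.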

[2] = target: AR / CBP ternary complex (Homo sapiens, UniProt P10275+Q92793); assay: Ternary complex formation assay (sandwich ELISA, AR capture, CBP antibody detection) in VCaP cell lysates; type: cell-based; conditions: treated 1.5 hours, rabbit CBP or p300 antibody detection, average, read-out: Average Ternary Complex
AR / CBP ternary complex, sequence (P10275 whole entry): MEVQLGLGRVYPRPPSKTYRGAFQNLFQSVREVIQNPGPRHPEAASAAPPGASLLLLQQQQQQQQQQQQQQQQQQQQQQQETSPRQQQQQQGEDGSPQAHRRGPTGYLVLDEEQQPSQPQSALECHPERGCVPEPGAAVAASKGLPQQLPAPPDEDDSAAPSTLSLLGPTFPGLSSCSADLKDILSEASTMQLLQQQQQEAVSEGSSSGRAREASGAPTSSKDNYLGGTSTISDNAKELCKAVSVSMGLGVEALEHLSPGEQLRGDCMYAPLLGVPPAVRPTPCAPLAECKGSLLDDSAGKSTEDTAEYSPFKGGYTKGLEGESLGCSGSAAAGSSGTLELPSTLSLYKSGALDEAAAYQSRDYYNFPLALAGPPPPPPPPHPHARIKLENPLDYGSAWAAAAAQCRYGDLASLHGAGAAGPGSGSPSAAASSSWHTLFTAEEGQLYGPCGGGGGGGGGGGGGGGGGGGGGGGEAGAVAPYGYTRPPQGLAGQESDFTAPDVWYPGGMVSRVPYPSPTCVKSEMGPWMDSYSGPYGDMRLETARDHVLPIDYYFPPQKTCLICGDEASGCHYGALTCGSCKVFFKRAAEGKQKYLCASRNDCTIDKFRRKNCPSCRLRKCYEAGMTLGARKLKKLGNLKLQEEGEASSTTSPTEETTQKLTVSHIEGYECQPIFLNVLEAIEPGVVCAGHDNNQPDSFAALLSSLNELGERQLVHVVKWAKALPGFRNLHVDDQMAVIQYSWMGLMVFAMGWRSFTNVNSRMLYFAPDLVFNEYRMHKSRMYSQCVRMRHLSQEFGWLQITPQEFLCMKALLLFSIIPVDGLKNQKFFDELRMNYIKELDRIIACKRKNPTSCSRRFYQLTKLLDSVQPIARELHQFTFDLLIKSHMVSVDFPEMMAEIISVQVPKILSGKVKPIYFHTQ
AR / CBP ternary complex, sequence (Q92793 2-2442): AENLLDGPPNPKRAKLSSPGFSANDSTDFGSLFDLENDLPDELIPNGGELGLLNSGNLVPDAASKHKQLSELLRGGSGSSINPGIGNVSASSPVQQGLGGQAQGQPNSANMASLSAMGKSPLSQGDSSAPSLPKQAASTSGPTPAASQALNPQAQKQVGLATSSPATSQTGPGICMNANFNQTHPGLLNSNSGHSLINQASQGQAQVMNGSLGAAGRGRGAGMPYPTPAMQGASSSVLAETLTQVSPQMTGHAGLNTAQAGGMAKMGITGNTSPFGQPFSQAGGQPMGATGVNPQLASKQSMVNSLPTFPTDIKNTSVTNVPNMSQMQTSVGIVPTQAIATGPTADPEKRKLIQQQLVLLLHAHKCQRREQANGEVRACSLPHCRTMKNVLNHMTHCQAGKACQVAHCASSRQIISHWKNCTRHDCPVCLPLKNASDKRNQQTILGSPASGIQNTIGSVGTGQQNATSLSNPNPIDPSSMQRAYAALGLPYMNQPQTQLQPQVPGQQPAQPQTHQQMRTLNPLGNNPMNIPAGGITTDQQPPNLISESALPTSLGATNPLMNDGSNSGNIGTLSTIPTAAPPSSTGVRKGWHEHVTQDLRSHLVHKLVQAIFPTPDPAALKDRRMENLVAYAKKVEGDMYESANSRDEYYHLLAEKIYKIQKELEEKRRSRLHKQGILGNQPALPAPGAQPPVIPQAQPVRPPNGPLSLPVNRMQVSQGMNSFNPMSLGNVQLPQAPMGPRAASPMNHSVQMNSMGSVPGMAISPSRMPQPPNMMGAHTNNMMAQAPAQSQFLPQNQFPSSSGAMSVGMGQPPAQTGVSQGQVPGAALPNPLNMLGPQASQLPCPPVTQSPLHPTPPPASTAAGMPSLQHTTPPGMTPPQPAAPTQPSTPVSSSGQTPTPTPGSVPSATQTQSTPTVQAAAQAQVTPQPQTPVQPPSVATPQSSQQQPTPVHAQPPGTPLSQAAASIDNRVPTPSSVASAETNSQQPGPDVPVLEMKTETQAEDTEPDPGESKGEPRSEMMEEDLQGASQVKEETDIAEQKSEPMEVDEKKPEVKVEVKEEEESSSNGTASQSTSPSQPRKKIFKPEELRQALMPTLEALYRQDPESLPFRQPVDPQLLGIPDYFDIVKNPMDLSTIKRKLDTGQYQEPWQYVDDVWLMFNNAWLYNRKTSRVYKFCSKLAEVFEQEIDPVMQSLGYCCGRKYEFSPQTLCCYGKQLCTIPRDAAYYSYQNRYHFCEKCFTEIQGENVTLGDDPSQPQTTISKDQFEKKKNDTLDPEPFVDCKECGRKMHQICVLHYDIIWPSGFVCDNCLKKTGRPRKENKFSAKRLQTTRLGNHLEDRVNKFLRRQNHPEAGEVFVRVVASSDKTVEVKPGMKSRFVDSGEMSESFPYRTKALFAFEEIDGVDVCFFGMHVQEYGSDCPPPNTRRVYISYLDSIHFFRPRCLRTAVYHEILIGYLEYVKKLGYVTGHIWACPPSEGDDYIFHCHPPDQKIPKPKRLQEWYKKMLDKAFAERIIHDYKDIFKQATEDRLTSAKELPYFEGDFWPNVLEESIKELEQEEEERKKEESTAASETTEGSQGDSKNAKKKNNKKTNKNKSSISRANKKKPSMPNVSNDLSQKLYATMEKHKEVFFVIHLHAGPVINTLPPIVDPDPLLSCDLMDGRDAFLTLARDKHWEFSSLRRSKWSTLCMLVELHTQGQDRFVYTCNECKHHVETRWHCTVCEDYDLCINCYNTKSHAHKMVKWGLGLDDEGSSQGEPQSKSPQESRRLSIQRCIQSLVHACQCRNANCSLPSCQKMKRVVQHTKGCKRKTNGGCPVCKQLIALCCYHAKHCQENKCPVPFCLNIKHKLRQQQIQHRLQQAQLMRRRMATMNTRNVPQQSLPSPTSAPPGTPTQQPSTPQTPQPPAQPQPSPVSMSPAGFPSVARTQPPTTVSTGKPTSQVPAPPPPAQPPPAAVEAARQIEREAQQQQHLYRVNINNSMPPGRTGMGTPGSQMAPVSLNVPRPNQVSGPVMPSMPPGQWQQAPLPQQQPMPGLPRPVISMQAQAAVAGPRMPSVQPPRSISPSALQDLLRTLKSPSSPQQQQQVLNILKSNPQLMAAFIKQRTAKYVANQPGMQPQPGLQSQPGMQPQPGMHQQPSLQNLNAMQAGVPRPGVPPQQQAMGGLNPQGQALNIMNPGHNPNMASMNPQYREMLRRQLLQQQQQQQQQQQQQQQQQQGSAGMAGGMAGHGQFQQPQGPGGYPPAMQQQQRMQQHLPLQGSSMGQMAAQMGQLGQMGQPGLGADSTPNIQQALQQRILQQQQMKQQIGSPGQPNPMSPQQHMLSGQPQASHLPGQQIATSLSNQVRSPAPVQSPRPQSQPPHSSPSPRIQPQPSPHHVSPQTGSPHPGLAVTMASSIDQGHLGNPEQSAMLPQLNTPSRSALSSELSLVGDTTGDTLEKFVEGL
In short: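 Sandwich ELISA: plates were coated with anti-AR antibody (AR441) and given lysates of VCaP cells treated 1.5 h with bifunctional compound in charcoal-stripped serum. Co-captured CBP or p300 was probed with rabbit mAbs and HRP secondary. Chemifluorescent signal (ex 570/em 585) was read at 0, 5 and 15 min.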

CC(=O)N1CCc2c(c(-c3cccc4cc(-c5ccc(CCC6CCN(c7ccc(C(=O)N[C@H]8CC[C@H](Oc9ccc(C#N)c(Cl)c9)CC8)cn7)CC6)cc5)ncc34)nn2C2CCOCC2)C1 [Compound 166, 6-[4-[2-[4-[8-(5-acetyl-1-tetrahydropyran-4-yl-6,7-dihydro-4H-pyrazolo[4,3-c]pyridin-3-yl)-3-isoquinolyl]phenyl]ethyl]-1-piperidyl]-N-[4-(3-chloro-4-cyano-phenoxy)cyclohexyl]pyridine-3-carboxamide]
IC50 [1]: 0.1 to 1 nM
EC50 [2]: < 1 nM

CC(=O)N1CCc2c(c(N3CCCc4cc(-c5ccc(CCC6CCN(c7ccc(C(=O)N[C@H]8CC[C@H](Oc9ccc(C#N)c(Cl)c9)CC8)cn7)CC6)cc5)c(C(F)F)cc43)nn2C2CCOCC2)C1 [Compound 168, 6-[4-[2-[4-[1-(5-acetyl-1-tetrahydropyran-4-yl-6,7-dihydro-4H-pyrazolo[4,3-c]pyridin-3-yl)-7-(difluoromethyl)-3,4-dihydro-2H-quinolin-6-yl]phenyl]ethyl]-1-piperidyl]-N-[4-(3-chloro-4-cyano-phenoxy)cyclohexyl]pyridine-3-carboxamide]
IC50 [1]: ≤ 0.1 nM
EC50 [2]: 10 to 100 nM

CC(=O)N1CCc2c(c(N3CCCc4cc(-c5cnn(C)c5)c(C(F)F)cc43)nn2C2CCN(CC3CC4CC3CN4c3ccc(C(=O)N[C@H]4CC[C@H](Oc5ccc(C#N)c(Cl)c5)CC4)nn3)CC2)C1 (stereo partly shown) [Compound 169, 6-[5-[[4-[5-acetyl-3-[7-(difluoromethyl)-6-(1-methylpyrazol-4-yl)-3,4-dihydro-2H-quinolin-1-yl]-6,7-dihydro-4H-pyrazolo[4,3-c]pyridin-1-yl]-1-piperidyl]methyl]-2-azabicyclo [2.2.1]heptan-2-yl]-N-[4-(3-chloro-4-cyano-phenoxy)cyclohexyl]pyridazine-3-carboxamide]
IC50 [1]: ≤ 0.1 nM
EC50 [2]: < 1 nM

CC(=O)N1CCc2c(c(-c3cccc4cc(C5CC5)ncc34)nn2C2CCN(C(=O)C3CCN(c4ccc(C(=O)N[C@H]5CC[C@H](Oc6ccc(C#N)c(Cl)c6)CC5)nn4)CC3)CC2)C1 [Compound 170, 6-[4-[4-[5-acetyl-3-(3-cyclopropyl-8-isoquinolyl)-6,7-dihydro-4H-pyrazolo[4,3-c]pyridin-1-yl]piperidine1-carbonyl]-1-piperidyl]-N-[4-(3-chloro-4-cyano-phenoxy)cyclohexyl]pyridazine-3-carboxamide]
IC50 [1]: 0.1 to 1 nM
EC50 [2]: < 1 nM

CC(=O)N1CCc2c(c(N3CCCc4cc(-c5cnn(C)c5)c(C(F)F)cc43)nn2C2CCN(C3CC4(CCN(c5ccc(C(=O)N[C@H]6CC[C@H](Oc7ccc(C#N)c(Cl)c7)CC6)nn5)CC4)C3)CC2)C1 [Compound 176, 6-[2-[4-[5-acetyl-3-[7-(difluoromethyl)-6-(1-methylpyrazol-4-yl)-3,4-dihydro-2H-quinolin-1-yl]-6,7-dihydro-4H-pyrazolo[4,3-c]pyridin-1-yl]-1-piperidyl]-7-azaspiro[3.5]nonan-7-yl]-N-[4-(3-chloro-4-cyano-phenoxy)cyclohexyl]pyridazine-3-carboxamide]
IC50 [1]: 0.1 to 1 nM
EC50 [2]: < 1 nM

CC(=O)N1CCc2c(c(-c3cccc4cc(-c5ccc(N6CC(C7CCN(c8ccc(C(=O)N[C@H]9CC[C@H](Oc%10ccc(C#N)c(Cl)c%10)CC9)nn8)CC7)C6)nc5)ncc34)nn2C2CCOCC2)C1 [Compound 181]
IC50 [1]: ≤ 0.1 nM
EC50 [2]: < 1 nM

CC(=O)N1CCc2c(c(-c3cccc4cc(-c5cnn(C6CCC7(CC6)CCN(c6ccc(C(=O)N[C@H]8CC[C@H](Oc9ccc(C#N)c(Cl)c9)CC8)nn6)CC7)c5)ncc34)nn2C2CCOCC2)C1 [Compound 182]
IC50 [1]: ≤ 0.1 nM
EC50 [2]: < 1 nM

CC(=O)N1CCc2c(c(-c3cccc4cc(-c5cnn(C6CCN(C7CCN(c8ccc(C(=O)N[C@H]9CC[C@H](Oc%10ccc(C#N)c(Cl)c%10)CC9)nn8)CC7)CC6)c5)ncc34)nn2C2CCOCC2)C1 [Compound 183]
IC50 [1]: 0.1 to 1 nM
EC50 [2]: < 1 nM

CC(=O)N1CCc2c(c(-c3cccc4cc(-c5cnn([C@H]6CC[C@H](C7CCN(c8ccc(C(=O)N[C@H]9CC[C@H](Oc%10ccc(C#N)c(Cl)c%10)CC9)nn8)CC7)CC6)c5)ncc34)nn2C2CCOCC2)C1 [Compound 184]
IC50 [1]: 1 to 100 nM
EC50 [2]: 1 to 10 nM

CC(=O)N1CCc2c(c(N3CCCc4cc(-c5cnn(C)c5)c(C(F)F)cc43)nn2C2CC3(C2)CC2(CCN(c4ccc(C(=O)N[C@H]5CC[C@H](Oc6ccc(C#N)c(Cl)c6)CC5)nn4)CC2)C3)C1 [Compound 191, 6-[2-[5-acetyl-3-[7-(difluoromethyl)-6-(1-methylpyrazol-4-yl)-3,4-dihydro-2H-quinolin-1-yl]-6,7-dihydro-4H-pyrazolo[4,3-c]pyridin-1-yl]-9-azadispiro[3.1.56.14]dodecan-9-yl]-N-[4-(3-chloro-4-cyano-phenoxy)cyclohexyl] pyridazine-3-carboxamide]
IC50 [1]: 0.1 to 1 nM
EC50 [2]: < 1 nM

CC(=O)N1CCc2c(c(N3CCCc4cc(-c5cnn(C)c5)c(C(F)F)cc43)nn2[C@H]2CC[C@@H](N3CCC4(CC3)CN(c3ccc(C(=O)N[C@H]5CC[C@H](Oc6ccc(C#N)c(Cl)c6)CC5)nn3)C4)CC2)C1 [Compound 192, 6-[7-[4-[5-acetyl-3-[7-(difluoromethyl)-6-(1-methylpyrazol-4-yl)-3,4-dihydro-2H-quinolin-1-yl]-6,7-dihydro-4H-pyrazolo[4,3-c]pyridin-1-yl]cyclohexyl]-2,7-diazaspiro[3.5]nonan-2-yl]-N-[4-(3-chloro-4-cyano-phenoxy)cyclohexyl]pyridazine-3-carboxamide]
IC50 [1]: ≤ 0.1 nM
EC50 [2]: < 1 nM

CC(=O)N1CCc2c(c(N3CCCc4cc(-c5cnn(C)c5)c(C(F)F)cc43)nn2C2CCN(C3CCC(C#Cc4ccc(C(=O)N[C@H]5CC[C@H](Oc6ccc(C#N)c(Cl)c6)CC5)nn4)CC3)CC2)C1 (stereo partly shown) [Compound 194, 6-[2-[4-[4-[5-acetyl-3-[7-(difluoromethyl)-6-(1-methylpyrazol-4-yl)-3,4-dihydro-2H-quinolin-1-yl]-6,7-dihydro-4H-pyrazolo[4,3-c]pyridin-1-yl]-1-piperidyl]cyclohexyl]ethynyl]-N-[4-(3-chloro-4-cyano-phenoxy)cyclohexyl]pyridazine-3-carboxamide]
IC50 [1]: ≤ 0.1 nM
EC50 [2]: < 1 nM

CC(=O)N1CCc2c(c(N3CCCc4cc(-c5cnn(C)c5)c(C(F)F)cc43)nn2C2CCN(C3CC(C#Cc4ccc(C(=O)N[C@H]5CC[C@H](Oc6ccc(C#N)c(Cl)c6)CC5)nn4)C3)CC2)C1 (stereo partly shown) [Compound 195, 6-[2-[3-[4-[5-acetyl-3-[7-(difluoromethyl)-6-(1-methylpyrazol-4-yl)-3,4-dihydro-2H-quinolin-1-yl]-6,7-dihydro-4H-pyrazolo[4,3-c]pyridin-1-yl]-1-piperidyl]cyclobutyl]ethynyl]-N-[4-(3-chloro-4-cyano-phenoxy)cyclohexyl]pyridazine-3-carboxamide]
IC50 [1]: ≤ 0.1 nM
EC50 [2]: < 1 nM

CC(=O)N1CCc2c(c(N3CCCc4cc(-c5cnn(C)c5)c(C(F)F)cc43)nn2C2CCC3(CC2)CCN(C2CN(c4ccc(C(=O)NC5CCC(Oc6ccc(C#N)c(Cl)c6)CC5)nn4)C2)CC3)C1 (stereo not shown) [Compound 197, 6-[3-[9-[5-acetyl-3-[7-(difluoromethyl)-6-(1-methylpyrazol-4-yl)-3,4-dihydro-2H-quinolin-1-yl]-6,7-dihydro-4H-pyrazolo[4,3-c]pyridin-1-yl]-3-azaspiro[5.5]undecan-3-yl]azetidin-1-yl]-N-[4-(3-chloro-4-cyanophenoxy)cyclohexyl]pyridazine-3-carboxamide]
IC50 [1]: ≤ 0.1 nM
EC50 [2]: < 1 nM
